Values of other authors, collected in paper PMC5664587 (Fluids and Barriers of the CNS, 2017).

Details: brain homogenate

SMILES: CC(C)NCC(O)COc1cccc2ccccc12 (stereo not shown) [propranolol]
- fu,brain, previously reported: 0.029
